Results from patent US20140288044A1, “COMPOSITIONS AND THERAPEUTIC USES OF IKK-RELATED KINASE EPSILON AND TANKBINDING KINASE 1 INHIBITORS” (Alzheimer's Institute of America, Inc., priority 2011, published 2014).
Where two headings read alike, the source gives them in different places.

How the values were obtained:
[1] = biological target: T1, IKKε (Homo sapiens, UniProt Q14164); test: In-vitro IKKε kinase assay (radiolabelled ATP, filterplate); format: biochemical
T1 construct: His-tag (in-house Sf9 preparation) or GST-tag (purchased Invitrogen preparation); these are alternatives, not both on one protein; host or cells: Sf9 cells
T1 sequence (Q14164 1-716): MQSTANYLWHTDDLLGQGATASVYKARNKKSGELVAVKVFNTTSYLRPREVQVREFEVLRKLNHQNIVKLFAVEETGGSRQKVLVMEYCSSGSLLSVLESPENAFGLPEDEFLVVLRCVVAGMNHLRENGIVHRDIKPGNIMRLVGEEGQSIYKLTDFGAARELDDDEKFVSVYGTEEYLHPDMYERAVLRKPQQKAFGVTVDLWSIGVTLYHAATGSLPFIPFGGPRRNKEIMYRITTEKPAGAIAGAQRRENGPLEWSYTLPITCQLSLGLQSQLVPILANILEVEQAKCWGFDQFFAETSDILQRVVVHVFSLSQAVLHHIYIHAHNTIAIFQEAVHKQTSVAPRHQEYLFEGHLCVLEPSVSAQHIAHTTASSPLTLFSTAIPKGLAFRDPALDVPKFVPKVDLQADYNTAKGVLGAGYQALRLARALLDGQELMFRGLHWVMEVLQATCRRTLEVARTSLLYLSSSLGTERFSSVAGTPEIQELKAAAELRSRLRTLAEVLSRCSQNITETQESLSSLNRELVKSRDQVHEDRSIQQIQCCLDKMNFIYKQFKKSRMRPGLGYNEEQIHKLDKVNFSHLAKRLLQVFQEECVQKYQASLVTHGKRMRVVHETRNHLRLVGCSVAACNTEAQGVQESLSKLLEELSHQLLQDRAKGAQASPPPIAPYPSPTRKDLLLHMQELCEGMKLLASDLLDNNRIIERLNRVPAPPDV
How it was run: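 His-tagged IKKε from Sf9 cells or GST-tagged IKKε, with myelin basic protein, casein or dephosphorylated casein as substrate and 32 μM ATP (2× Km) plus [γ^33]ATP. "Normal" assay used 0.1 μg/ml enzyme; "sensitized" used 0.015 μg/ml with dephosphorylated casein only. Stopped after 30–45 min with phosphoric acid; P-81 filter counts normalized to DMSO after background subtraction.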

[2] = test system: IKKε-mediated phosphorylation of IRF3; test: ELISA for in-situ phosphorylation of IRF3 (phospho-Ser396) in HEK293T cells cotransfected with IRF3 and IKKε; format: cell-based; conditions: Homo sapiens, HEK-293T, 20 h, HEK293T cells, 20 hours, read-out: IC50, in-situ IKKε-mediated phosphorylation of IRF3
How it was run: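 HEK293T cells cotransfected with IRF3 and IKKε were treated with compound for 20 h, and lysates were assayed by ELISA for phospho-Ser396 IRF3, normalized to DMSO. Viability was checked in parallel by CellTiter-Glo. For TBK1, cells cotransfected with IRF7 and TBK1 were treated overnight and probed by Western blot for phospho-Ser477/Ser479 IRF7.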

[3] = in-vitro IKKε kinase inhibition assays, given as 0.005 μM (5 nM), read-out: IKKε kinase inhibitory activity (IC50 value)
[4] = "sensitized" assay, read-out: IC50, inhibition of the kinase activity of IKKε
[5] = range given from about 1 μM to about 250 nM

COc1cc(Nc2nccc(-c3ccc(OC4CCN(C(=O)CO)CC4)c(C#N)c3)n2)ccn1 [Example Compound 131, 2-{[1-(Hydroxyacetyl)piperidin-4-yl]oxy}-5-{2-[(2-methoxypyridin-4-yl)amino]pyrimidin-4-yl}benzonitrile]
IC50 [1, 3]: < 5 nM | IC50 [2]: 100 to 250 nM

COCCNc1ncc(-c2ccc(Nc3nccc(-c4ccc(OC5CCOCC5)c(C#N)c4)n3)cn2)cn1 [Example Compound 80, 5-{2-[(6-{2-[(2-Methoxyethyl)amino]pyrimidin-5-yl}pyridin-3-yl)amino]pyrimidin-4-yl}-2-(tetrahydro-2H-pyran-4-yloxy)benzonitrile]
IC50 [1, 3]: < 5 nM | IC50 [2]: < 100 nM

CC(c1ncc(Nc2nccc(-c3ccc(OC4CCOCC4)c(C#N)c3)n2)cc1F)N1CC(N(C)C)C1 (stereo not shown) [Example Compound 250, 5-{2-[(6-{1-[3-(Dimethylamino)azetidin-1-yl]ethyl}-5-fluoropyridin-3-yl)amino]pyrimidin-4-yl}-2-(tetrahydro-2H-pyran-4-yloxy)benzonitrile]
IC50 [1, 4]: < 5 nM | IC50 [2]: 100 to 250 nM

N#Cc1cc(-c2ccnc(Nc3cncc(C(=O)NCCO)c3)n2)ccc1OC1CCOCC1 [Example Compound 175, 5-({4-[3-Cyano-4-(tetrahydro-2H-pyran-4-yloxy)phenyl]pyrimidin-2-yl}amino)-N-(2-hydroxyethyl)pyridine-3-carboxamide]
IC50 [1, 4]: < 5 nM | IC50 [2]: 1000 to 5000 nM

CN(Cc1ccc(Nc2nccc(-c3ccc(OC4CCOCC4)c(C#N)c3)n2)cn1)C(=O)CO [Example Compound 58, N-{[5-({4-[3-Cyano-4-(tetrahydro-2H-pyran-4-yloxy)phenyl]pyrimidin-2-yl}amino)pyridin-2-yl]methyl}-2-hydroxy-N-methylacetamide]
IC50 [1, 3]: < 5 nM | IC50 [2]: 100 to 250 nM

N#Cc1cc(-c2ccnc(Nc3ccc(CNC(=O)N4CCOCC4)nc3)n2)ccc1OC1CCOCC1 [Example Compound 229, N-{[5-({4-[3-Cyano-4-(tetrahydro-2H-pyran-4-yloxy)phenyl]pyrimidin-2-yl}amino)pyridin-2-yl]methyl}morpholine-4-carboxamide]
IC50 [1, 4]: < 5 nM | IC50 [2]: 100 to 250 nM

N#Cc1cc(-c2ccnc(Nc3ccnc(N4CCN(CCO)CC4)c3)n2)ccc1NC(=O)C1CC1 [Example Compound 143, N-{2-Cyano-4-[2-({2-[4-(2-hydroxyethyl)piperazin-1-yl]pyridin-4-yl}amino)pyrimidin-4-yl]phenyl}cyclopropanecarboxamide]
IC50 [1, 4]: < 5 nM | IC50 [1, 3]: < 5 nM | IC50 [2]: < 100 nM

Cn1cc(-c2cc(Nc3nccc(-c4ccc(O[C@@H]5CCN(C(=O)CO)C5)c(C#N)c4)n3)ccn2)cn1 [Example Compound 126, 2-{[(3R)-1-(Hydroxyacetyl)pyrrolidin-3-yl]oxy}-5-(2-{[2-(1-methyl-1H-pyrazol-4-yl)pyridin-4-yl]amino}pyrimidin-4-yl)benzonitrile]
IC50 [1, 3]: < 5 nM | IC50 [2]: 1000 to 5000 nM

CC(c1ccc(Nc2nccc(-c3ccc(OC4CCOCC4)c(C#N)c3)n2)cn1)N1CC(N(C)C)C1 (stereo not shown) [Example Compound 244, 5-{2-[(6-{1-[3-(Dimethylamino)azetidin-1-yl]ethyl}pyridin-3-yl)amino]pyrimidin-4-yl}-2-(tetrahydro-2H-pyran-4-yloxy)benzonitrile]
IC50 [1, 4]: < 5 nM | IC50 [2]: < 100 nM

N#Cc1cc(-c2ccnc(Nc3ccc(C(=O)N4CC(O)C4)nc3)n2)ccc1OC1CCOCC1 [Example Compound 32, 5-[2-({6-[(3-Hydroxyazetidin-1-yl)carbonyl]pyridin-3-yl}amino)pyrimidin-4-yl]-2-(tetrahydro-2H-pyran-4-yloxy)benzonitrile]
IC50 [1, 4]: < 5 nM | IC50 [1, 3]: < 5 nM | IC50 [2, 5]: 250 to 1000 nM

N#Cc1cc(-c2ccnc(Nc3ccc(N4CCOCC4)nn3)n2)ccc1OC1CCOCC1 [Example Compound 88, 5-(2-{[6-(Morpholin-4-yl)pyridazin-3-yl]amino}pyrimidin-4-yl)-2-(tetrahydro-2H-pyran-4-yloxy)benzonitrile]
IC50 [1, 4]: < 5 nM | IC50 [1, 3]: < 5 nM | IC50 [2, 5]: 250 to 1000 nM

COC1CN(C(=O)c2ncc(Nc3nccc(-c4ccc(OC5CCOCC5)c(C#N)c4)n3)n2C)C1 [Example Compound 102, 5-[2-({2-[(3-Methoxyazetidin-1-yl)carbonyl]-1-methyl-1H-imidazol-5-yl}amino)pyrimidin-4-yl]-2-(tetrahydro-2H-pyran-4-yloxy)benzonitrile]
IC50 [1, 4]: < 5 nM | IC50 [1, 3]: < 5 nM | IC50 [2]: 100 to 250 nM

N#Cc1cc(-c2ccnc(Nc3ccnc(N4CC(O)C4)c3)n2)ccc1NC(=O)C1CC1 [Example Compound 237, N-[2-Cyano-4-(2-{[2-(3-hydroxyazetidin-1-yl)pyridin-4-yl]amino}pyrimidin-4-yl)phenyl]cyclopropanecarboxamide]
IC50 [1, 4]: < 5 nM | IC50 [2]: 1000 to 5000 nM

N#Cc1cc(-c2ccnc(Nc3ccnc(N4CCC[C@@H]4CO)c3)n2)ccc1OC1CCOCC1 [Example Compound 37, 5-[2-({2-[(2R)-2-(Hydroxymethyl)pyrrolidin-1-yl]pyridin-4-yl}amino)pyrimidin-4-yl]-2-(tetrahydro-2H-pyran-4-yloxy)benzonitrile]
IC50 [1, 3]: < 5 nM | IC50 [2]: 100 to 250 nM

N#Cc1cc(-c2ccnc(Nc3ccnc(NCCO)c3)n2)ccc1OC1CCN(C(=O)CO)CC1 [Example Compound 239, 2-{[1-(Hydroxyacetyl)piperidin-4-yl]oxy}-5-[2-({2-[(2-hydroxyethyl)amino]pyridin-4-yl}amino)pyrimidin-4-yl]benzonitrile]
IC50 [1, 4]: < 5 nM | IC50 [2]: 1000 to 5000 nM

N#Cc1cc(-c2ccnc(Nc3ccc(-n4ccnc4)nc3)n2)ccc1OC1CCOCC1 [Example Compound 75, 5-(2-{[6-(1H-Imidazol-1-yl)pyridin-3-yl]amino}pyrimidin-4-yl)-2-(tetrahydro-2H-pyran-4-yloxy)benzonitrile]
IC50 [1, 3]: < 5 nM | IC50 [2]: < 100 nM

CC(c1ccc(Nc2nccc(-c3ccc(OC4CCOCC4)c(C#N)c3)n2)cn1)N1CC(O)C1 (stereo not shown) [Example Compound 63, 5-[2-({6-[1-(3-Hydroxyazetidin-1-yl)ethyl]pyridin-3-yl}amino)pyrimidin-4-yl]-2-(tetrahydro-2H-pyran-4-yloxy)benzonitrile]
IC50 [1, 3]: < 5 nM | IC50 [2]: 100 to 250 nM

COC1CN(c2cc(Nc3nccc(-c4ccc(OC5CCOCC5)c(C#N)c4)n3)ccn2)C1 [Example Compound 43, 5-(2-{[2-(3-Methoxyazetidin-1-yl)pyridin-4-yl]amino}pyrimidin-4-yl)-2-(tetrahydro-2H-pyran-4-yloxy)benzonitrile]
IC50 [1, 4]: < 5 nM | IC50 [1, 3]: < 5 nM | IC50 [2]: < 100 nM

N#Cc1cc(-c2ccnc(Nc3ccc(C4CC4)nc3)n2)ccc1OC1CCOCC1 [Example Compound 4, 5-{2-[(6-Cyclopropylpyridin-3-yl)amino]pyrimidin-4-yl}-2-(tetrahydro-2H-pyran-4-yloxy)benzonitrile]
IC50 [1, 4]: < 5 nM | IC50 [1, 3]: < 5 nM | IC50 [2]: < 100 nM

CN(C)c1ccc(Nc2nccc(-c3ccc(NC(=O)C4CC4)c(C#N)c3)n2)cn1 [Example Compound 138, N-[2-Cyano-4-(2-{[6-(dimethylamino)pyridin-3-yl]amino}pyrimidin-4-yl)phenyl]cyclopropanecarboxamide]
IC50 [1, 4]: < 5 nM | IC50 [1, 3]: < 5 nM | IC50 [2]: < 100 nM

Cc1ccc(Nc2nccc(-c3ccc(OC4CCN(C(=O)CO)CC4)c(C#N)c3)n2)cn1 [Example Compound 130, 2-{[1-(Hydroxyacetyl)piperidin-4-yl]oxy}-5-{2-[(6-methylpyridin-3-yl)amino]pyrimidin-4-yl}benzonitrile]
IC50 [1, 3]: < 5 nM | IC50 [2]: 1000 to 5000 nM

N#Cc1cc(-c2ccnc(Nc3ccnc(N4CC(O)C4)c3)n2)ccc1OC1CCOCC1 [Example Compound 41, 5-(2-{[2-(3-Hydroxyazetidin-1-yl)pyridin-4-yl]amino}pyrimidin-4-yl)-2-(tetrahydro-2H-pyran-4-yloxy)benzonitrile]
IC50 [1, 4]: < 5 nM | IC50 [1, 3]: < 5 nM | IC50 [2]: 100 to 250 nM
